Measured values as given in US20260217708A1, “FUSED BENZAZEPINE DERIVATIVES FOR USE IN THE TREATMENT OF CANCER AND EPILEPSY” (UCB BIOPHARMA SRL, priority 2023, published 2026).

Key:
system Xc^− [1] = molecular target: T1, system Xc^− (Homo sapiens, UniProt Q9UPY5); assay: [^14C]L-Cystine uptake assay; assay type: cell-based; parameters: endogenous in cells; host or cells: H4 cells; conditions: H4 cells, sodium-free HEPES buffer, 0.5 μM L-[14C]Cystine and 4.5 μM L-Cystine, 1 hour at 37° C.; read-out: pIC50 [^14C] L-Cystine uptake assay (converted)
T1 sequence (Q9UPY5 1-501): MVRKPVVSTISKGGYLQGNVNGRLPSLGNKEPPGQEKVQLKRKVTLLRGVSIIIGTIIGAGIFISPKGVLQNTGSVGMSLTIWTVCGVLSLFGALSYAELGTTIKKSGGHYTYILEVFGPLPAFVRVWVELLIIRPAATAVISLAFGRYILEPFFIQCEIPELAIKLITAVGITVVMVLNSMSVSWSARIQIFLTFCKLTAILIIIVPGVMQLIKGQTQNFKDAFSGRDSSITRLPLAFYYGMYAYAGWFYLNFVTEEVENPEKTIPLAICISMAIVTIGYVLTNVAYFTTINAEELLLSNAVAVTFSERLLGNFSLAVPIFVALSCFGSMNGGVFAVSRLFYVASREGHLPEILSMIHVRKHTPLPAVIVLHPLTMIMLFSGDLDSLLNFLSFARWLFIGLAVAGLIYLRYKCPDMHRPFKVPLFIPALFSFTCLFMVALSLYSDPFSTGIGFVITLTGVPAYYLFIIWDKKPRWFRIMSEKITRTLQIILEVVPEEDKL
T1 sequence (P08195 1-529 partner): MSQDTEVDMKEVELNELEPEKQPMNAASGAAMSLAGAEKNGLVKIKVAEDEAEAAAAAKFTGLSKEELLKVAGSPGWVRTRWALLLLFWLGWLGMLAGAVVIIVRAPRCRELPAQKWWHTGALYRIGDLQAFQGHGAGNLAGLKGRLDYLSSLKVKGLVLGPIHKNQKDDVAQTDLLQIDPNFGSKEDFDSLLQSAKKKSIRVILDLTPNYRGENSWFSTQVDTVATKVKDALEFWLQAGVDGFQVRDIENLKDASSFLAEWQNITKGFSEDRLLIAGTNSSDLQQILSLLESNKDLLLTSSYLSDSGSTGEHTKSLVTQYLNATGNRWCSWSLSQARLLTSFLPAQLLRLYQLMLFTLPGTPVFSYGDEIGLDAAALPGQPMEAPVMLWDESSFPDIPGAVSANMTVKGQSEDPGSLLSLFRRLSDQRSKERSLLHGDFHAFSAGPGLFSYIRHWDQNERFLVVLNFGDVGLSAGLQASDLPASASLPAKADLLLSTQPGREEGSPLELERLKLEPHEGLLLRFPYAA
Procedure, shortened: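 H4 cells at 5×10^4 cells/well in sodium-free HEPES buffer were preincubated 15 min with compounds (1% DMSO). Uptake of 0.5 μM [14C]L-cystine plus 4.5 μM unlabelled L-cystine ran 1 hour at 37° C on scintillating plates. IC50 was set between 1% DMSO and 50 μM Erastin controls and expressed as pIC50.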

system Xc^− [2] = molecular target: T1, system Xc^−; assay: Cystine-induced glutamate release assay; assay type: cell-based; parameters: endogenous in cells; host or cells: H4 cells; conditions: H4 cells, sodium-free HEPES buffer, 50 μM L-Cystine, 2 hours, Amplex Red glutamate readout; read-out: pIC50 Cystine-induced glutamate release assay (converted)
Procedure, shortened: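 H4 cells in sodium-free HEPES buffer (pH 7.4), 2 days after plating; glutamate release induced with 50 μM L-cystine plus compound (1% DMSO), 2 h at 37 °C. Supernatant glutamate measured by Amplex Red fluorescence; IC50/pIC50 derived between 1% DMSO and 50 μM erastin controls.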

Compound	IC50 (system Xc^− [1]) [µM]	IC50 (system Xc^− [2]) [µM]
CC1C(=O)N(CC(=O)Nc2ccc(C(F)F)cc2)c2cc(N3CC(F)(F)C3)ccc2-c2cccnc21 (single isomer, unassigned) [#334, 2-[9-(3,3-difluoroazetidin-1-yl)-5-methyl-6-oxo-5H-pyrido[2,3-d][1]benzazepin-7-yl]-N-[4-(difluoromethyl)phenyl]acetamide]	< 0.0158	< 0.0158
COc1cc2c(c(OC)n1)-c1cccnc1C(C)C(=O)N2CC(=O)Nc1ccc(C(F)F)cc1 (single isomer, unassigned) [#335, N-[4-(difluoromethyl)phenyl]-2-[3,5-dimethoxy-10-methyl-9-oxo-4,8,12-triazatricyclo[9.4.0.0^2,7]pentadeca-1(15),2(7),3,5,11,13-hexaen-8-yl]acetamide]	< 0.0158	< 0.0158
COc1cc2c(c(OC)n1)-c1cccnc1C(C)C(=O)N2CC(=O)Nc1ccc(C(F)(F)F)cn1 (single isomer, unassigned) [#336, 2-[3,5-dimethoxy-10-methyl-9-oxo-4,8,12-triazatricyclo[9.4.0.0^2,7]pentadeca-1(15),2(7),3,5,11,13-hexaen-8-yl]-N-[5-(trifluoromethyl)-2-pyridyl]acetamide]	0.0398 to 0.1	0.0158 to 0.0398
COc1cc2c(c(OC)n1)-c1cccnc1C(C)C(=O)N2CC(=O)Nc1ccc(C(F)(F)F)nc1 (single isomer, unassigned) [#337, 2-[3,5-dimethoxy-10-methyl-9-oxo-4,8,12-triazatricyclo[9.4.0.0^2,7]pentadeca-1(15),2(7),3,5,11,13-hexaen-8-yl]-N-[6-(trifluoromethyl)-3-pyridyl]acetamide]	0.0158 to 0.0398	0.0158 to 0.0398
CC1C(=O)N(CC(=O)Nc2ccc(Cl)c(F)c2)c2cc(C(F)F)ncc2-c2cccnc21 (single isomer, unassigned) [#342, N-(4-chloro-3-fluoro-phenyl)-2-[5-(difluoromethyl)-10-methyl-9-oxo-4,8,12-triazatricyclo[9.4.0.0^2,7]pentadeca-1(15),2,4,6,11,13-hexaen-8-yl]acetamide]	< 0.0158	< 0.0158
CC1C(=O)N(CC(=O)Nc2ccc(Cl)c(F)c2)c2cc(C(F)F)ncc2-c2cc(F)cnc21 (single isomer, unassigned) [#348, N-(4-chloro-3-fluoro-phenyl)-2-[5-(difluoromethyl)-14-fluoro-10-methyl-9-oxo-4,8,12-triazatricyclo[9.4.0.0^2,7]pentadeca-1(15),2,4,6,11,13-hexaen-8-yl]acetamide]	< 0.0158	0.0158 to 0.0398
CC1C(=O)N(CC(=O)Nc2ccc(C(F)F)cc2)c2cc(C(F)F)c(=O)n(C)c2-c2ccccc21 (single isomer, unassigned) [#357, 2-[3-(difluoromethyl)-1,7-dimethyl-2,6-dioxo-7H-pyrido[3,2-d][3]benzazepin-5-yl]-N-[4-(difluoromethyl)phenyl]acetamide]	0.0158 to 0.0398	0.0158 to 0.0398
Cc1cc2c(c(=O)n1C)-c1ccnn1C(C)C(=O)N2CC(=O)Nc1ccc(C(F)F)cc1 (single isomer, unassigned) [#358, N-[4-(difluoromethyl)phenyl]-2-[7,12,13-trimethyl-8,14-dioxo-5,6,9,13-tetrazatricyclo[8.4.0.0^2,6]tetradeca-1(10),2,4,11-tetraen-9-yl]acetamide]	0.1 to 0.501	0.0158 to 0.0398
Cc1cc2c(c(=O)o1)-c1ccccc1C(C)C(=O)N2CC(=O)Nc1ccc(C(F)F)cc1 (single isomer, unassigned) [#359, N-[4-(difluoromethyl)phenyl]-2-[3,7-dimethyl-1,6-dioxo-7H-pyrano[4,3-d][3]benzazepin-5-yl]acetamide]	0.0158 to 0.0398	0.0158 to 0.0398
Cc1cc2c(c(=O)o1)-c1cccnc1C(C)C(=O)N2CC(=O)Nc1ccc(C(F)F)cc1 (single isomer, unassigned) [#360, N-[4-(difluoromethyl)phenyl]-2-[5,10-dimethyl-3,9-dioxo-4-oxa-8,12-diazatricyclo[9.4.0.0^2,7]pentadeca-1(15),2(7),5,11,13-pentaen-8-yl]acetamide]	0.0398 to 0.1	0.0158 to 0.0398
CC1C(=O)N(CC(=O)Nc2ccc(Cl)c(F)c2)c2ccn(C)c(=O)c2-c2ccc(F)cc21 (single isomer, unassigned) [#364, N-(4-chloro-3-fluoro-phenyl)-2-[-9-fluoro-2,7-dimethyl-1,6-dioxo-7H-pyrido[4,3-d][3]benzazepin-5-yl]acetamide]	< 0.0158	0.0158 to 0.0398
CC1C(=O)N(CC(=O)Nc2ccc(C(F)F)cc2)c2cc(C3(F)CC3)oc(=O)c2-c2cccnc21 (single isomer, unassigned) [#365, N-[4-(difluoromethyl)phenyl]-2-[5-(1-fluorocyclopropyl)-10-methyl-3,9-dioxo-4-oxa-8,12-diazatricyclo[9.4.0.0^2,7]pentadeca-1(15),2(7),5,11,13-pentaen-8-yl]acetamide]	0.0158 to 0.0398	< 0.0158
Cc1cc2c(c(=O)n1C)-c1cncnc1C(C)C(=O)N2CC(=O)Nc1ccc(C(F)F)cc1 (single isomer, unassigned) [#367, N-[4-(difluoromethyl)phenyl]-2-[8,13,14-trimethyl-9,15-dioxo-4,6,10,14-tetrazatricyclo[9.4.0.0^2,7]pentadeca-1(11),2(7),3,5,12-pentaen-10-yl]acetamide]	0.0158 to 0.0398	0.0158 to 0.0398
Cc1c2c(cn(C)c1=O)N(CC(=O)Nc1ccc(C(F)F)cc1)C(=O)C(C)c1ccccc1-2 (single isomer, unassigned) [#368, N-[4-(difluoromethyl)phenyl]-2-[1,3,7-trimethyl-2,6-dioxo-7H-pyrido[4,3-a][3]benzazepin-5-yl]acetamide]	< 0.0158	< 0.0158

More lines, now with the values ahead:

IC50 (system Xc^− [1]) [µM]	IC50 (system Xc^− [2]) [µM]	Compound
0.0158 to 0.0398	0.0158 to 0.0398	Cc1cc2c(cn1)-c1cncnc1C(C)C(=O)N2CC(=O)Nc1ccc(Cl)c(F)c1 (single isomer, unassigned) [#369, N-(4-chloro-3-fluoro-phenyl)-2-[8,13-dimethyl-9-oxo-4,6,10,14-tetrazatricyclo[9.4.0.0^2,7]pentadeca-1(15),2,4,6,11,13-hexaen-10-yl]acetamide]
< 0.0158	< 0.0158	COc1cc(F)c2c(c1)N(CC(=O)Nc1ccc(Cl)c(F)c1)C(=O)C(C)c1ncncc1-2 (single isomer, unassigned) [#371, N-(4-chloro-3-fluoro-phenyl)-2-[11-fluoro-9-methoxy-5-methyl-6-oxo-5H-pyrimido[4,5-d][1]benzazepin-7-yl]acetamide]
0.0158 to 0.0398	< 0.0158	CC1C(=O)N(CC(=O)Nc2ccc(Cl)c(F)c2)c2cc(F)cc(F)c2-c2cncnc21 (single isomer, unassigned) [#372, N-(4-chloro-3-fluoro-phenyl)-2-[9,11-difluoro-5-methyl-6-oxo-5H-pyrimido[4,5-d][1]benzazepin-7-yl]acetamide]
0.0158 to 0.0398	0.0158 to 0.0398	Cc1ncc2c(n1)C(C)C(=O)N(CC(=O)Nc1ccc(Cl)c(F)c1)c1cc(Cl)cc(F)c1-2 (single isomer, unassigned) [#373, 2-[9-chloro-11-fluoro-3,5-dimethyl-6-oxo-5H-pyrimido[4,5-d][1]benzazepin-7-yl]-N-(4-chloro-3-fluoro-phenyl)acetamide]
< 0.0158	< 0.0158	Cc1cc2c(c(F)n1)-c1ccc(F)cc1C(O)C(=O)N2CC(=O)Nc1ccc(C(F)F)cc1 (single isomer, unassigned) [#380, 2-[1,9-difluoro-7-hydroxy-3-methyl-6-oxo-7H-pyrido[4,3-d][3]benzazepin-5-yl]-N-[4-(difluoromethyl)phenyl]acetamide]
0.1 to 0.501	0.0398 to 0.1	O=C(CN1C(=O)C(CO)c2ncccc2-c2c(F)cc(F)cc21)Nc1ccc(Cl)c(F)c1 (single isomer, unassigned) [#381, N-(4-chloro-3-fluoro-phenyl)-2-[9,11-difluoro-5-(hydroxymethyl)-6-oxo-5H-pyrido[2,3-d][1]benzazepin-7-yl]acetamide]
